Results as given in patent US9867373B2, “Fungicidal composition having synergistic effect” (JIANGSU HUIFENG AGROCHEMICAL CO., LTD., priority 2013, dated 2018).
Converted amounts (≈) assume the structure as drawn.

Columns and labels:
[1] = tested on: downy mildew pathogens of cucumber; test: Toxicity test on downy mildew pathogens of cucumber (disease index and control effect on whole cucumber plant); type: in vivo; settings: for ATI: actual toxicity index
[2] = tested on: rust pathogens of wheat; test: whole plant or invertebrate; type: in vivo
[3] = tested on: oomycetes; settings: background statement; cited from earlier work

polyoxin gave an EC50 ([1]; Table 6, with polyoxin) of 5.24 µg/mL and an ATI ([1]; Table 6, with polyoxin) of 89.89.
Molecule `CO/C=C(/C(=O)OC)c1ccccc1COc1cccc(C(F)(F)F)n1` [Picoxystrobin, picoxystrobin] has an EC50 ([2]; Table 15, with picoxystrobin) of 5.68 µg/mL (≈ 15.5 µM) and an ATI ([2]; actual toxicity index, Table 15, with picoxystrobin) of 87.68.
In the case of `CSC1=N[C@@](C)(c2ccccc2)C(=O)N1Nc1ccccc1` [Fenamidone, fenamidone], the EC50 ([1]; Cucumis sativus) is reported as 5.12 µg/mL (≈ 16.4 µM) and the ATI ([1]; Table 4, with fenamidone) is reported as 107.62.
For `COc1ccc(C(=CC(=O)N2CCOCC2)c2ccc(Cl)cc2)cc1OC` [Dimethomorph, dimethomorph], the ATI ([1]; Table 2, with dimethomorph) is given as 63.9 and the “concentration at which an inhibitory effect is exerted” value [3] is given as < 0.25 µg/mL.
Molecule `OC(Cc1ccccc1Cl)(Cn1nc[nH]c1=S)C1(Cl)CC1` (stereo not shown) [Prothioconazole, prothioconazole] has an EC50 ([2]; Triticum aestivum) of 5.12 µg/mL (≈ 14.9 µM).
In the case of `CON=C(C(=O)OC)c1ccccc1CON=C(C)c1cccc(C(F)(F)F)c1` [Trifloxystrobin, trifloxystrobin], the EC50 ([2]; Triticum aestivum) is reported as 4.75 µg/mL (≈ 11.6 µM).
Work on `O=[N+]([O-])c1cc(C(F)(F)F)c(Cl)c([N+](=O)[O-])c1Nc1ncc(C(F)(F)F)cc1Cl` [Fluazinam, fluazinam] yielded an EC50 ([1]; Cucumis sativus) of 5.19 µg/mL (≈ 11.2 µM) and an ATI ([1]; Table 9, with fluazinam) of 97.88.
`CC(C)NC(=O)N1CC(=O)N(c2cc(Cl)cc(Cl)c2)C1=O` [Iprodione, iprodione] gave an EC50 ([2]; Triticum aestivum) of 5.35 µg/mL (≈ 16.2 µM).
With `O=C(S)c1cccc2nnsc12` [Acibenzolar, acibenzolar] the EC50 ([1]; Table 8, with acibenzolar) was 5.38 µg/mL (≈ 27.4 µM) and the ATI ([1]; Table 8, with acibenzolar) was 91.45.
Molecule `COC(=O)N(OC)c1ccccc1COc1ccn(-c2ccc(Cl)cc2)n1` [Pyraclostrobin, pyraclostrobin] has an EC50 ([2]; Triticum aestivum) of 4.98 µg/mL (≈ 12.8 µM).
For `Fc1ccc([C@]2(Cn3cncn3)O[C@H]2c2ccccc2Cl)cc1` (racemic) [Epoxiconazole, epoxiconazole], the EC50 ([2]; Triticum aestivum) was 5.29 µg/mL (≈ 16 µM).
With `CCC(C)(NC(=O)c1cc(Cl)c(C)c(Cl)c1)C(=O)CCl` (stereo not shown) [Zoxamide, zoxamide] the EC50 ([1]; Cucumis sativus) was 5.11 µg/mL (≈ 15.2 µM) and the ATI ([1]; Table 7, with zoxamide) was 95.69.
For `CO/C=C(/C(=O)OC)c1ccccc1Oc1cc(Oc2ccccc2C#N)ncn1` [Azoxystrobin, azoxystrobin], the EC50 ([1]; Table 3, with azoxystrobin) was 5.82 µg/mL (≈ 14.4 µM) and the ATI ([1]; Table 3, with azoxystrobin) was 72.34.
`N#Cc1sc2c(=O)c3ccccc3c(=O)c=2sc1C#N` [Dithianon, dithianon] showed an EC50 ([1]; Cucumis sativus) of 5.34 µg/mL (≈ 18 µM) and an ATI ([1]; Table 5, with dithianon) of 88.39.
Work on `Cc1nc(C(F)(F)F)c(C(=O)Nc2c(Br)cc(OC(F)(F)F)cc2Br)s1` [Thifluzamide, thifluzamide] yielded an EC50 ([2]; Triticum aestivum) of 5.12 µg/mL (≈ 9.7 µM).
With `CC1COC(Cn2cncn2)(c2ccc(Oc3ccc(Cl)cc3)cc2Cl)O1` (stereo not shown) [Difenoconazole, difenoconazole] the EC50 ([2]; Triticum aestivum) was 5.45 µg/mL (≈ 13.4 µM).
`Cc1cc(C2CC2)nc(Nc2ccccc2)n1` [Cyprodinil, cyprodinil] gave an EC50 ([2]; Triticum aestivum) of 5.87 µg/mL (≈ 26.1 µM).
For `CC(C)OC(=O)N[C@H](C(=O)N[C@H](C)c1nc2ccc(F)cc2s1)C(C)C` [Benthiavalicarb-isopropyl, benthiavalicarb-isopropyl], the EC50 ([1]; Cucumis sativus) was 5.41 µg/mL (≈ 14.2 µM) and the ATI ([1]; Table 1, with benthiavalicarb-isopropyl) was 60.1.
